This is an account of results in ChEMBL document CHEMBL1133559, “4-Aryl-2,4-dioxobutanoic acid inhibitors of HIV-1 integrase and viral replication in cells” (J Med Chem, 2000).

Test [1] relates to Human immunodeficiency virus 1. Kind of test: In vitro inhibition of (HIV-1 IIIB) replication. It is filed as functional. Conditions: for IC95: Human immunodeficiency virus 1, read-out: CIC95.
In test [2] the target is T1, Human immunodeficiency virus type 1 integrase (Human immunodeficiency virus 1, UniProt Q7ZJM1).
Description: Inhibition of recombinant HIV-1 Integrase in strand transfer enzyme assay.
Test [3] addresses T1, Human immunodeficiency virus type 1 integrase. Kind of test: Inhibitory activity was determined against recombinant HIV-1 Integrase (0.1 uM) in strand transfer enzyme assay.

pIC50: −log10 of the molar value. “And” between values parts separate entries of the source, which are not always exact repeats. Equal entries are not always repeated.

T1 sequence (Q7ZJM1 whole entry): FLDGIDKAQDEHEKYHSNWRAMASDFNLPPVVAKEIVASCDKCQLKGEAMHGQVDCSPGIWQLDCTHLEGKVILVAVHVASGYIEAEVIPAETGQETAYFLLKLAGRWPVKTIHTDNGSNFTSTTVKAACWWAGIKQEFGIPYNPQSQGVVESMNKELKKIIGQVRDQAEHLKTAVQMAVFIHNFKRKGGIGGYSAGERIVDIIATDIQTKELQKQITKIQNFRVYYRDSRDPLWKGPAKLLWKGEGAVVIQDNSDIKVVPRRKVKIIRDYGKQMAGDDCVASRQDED

On to `O=C(O)C(=O)CC(=O)c1cccn1Cc1ccc(F)cc1`, for which the IC95 in test [1] stood at 9600 nM. Broadly, the pIC50 is −log10 of the IC50, conventionally taken in molar units. As to `COc1ccc(C(=O)CC(=O)C(=O)O)cc1Cc1ccccc1`, the IC95 in test [1] came to 1830 nM. In test [2], this compound gave a pIC50 of 6.82. For the compound `O=C(O)C(=O)CC(=O)c1cccc(Cc2ccc(F)cc2)c1`, the IC95 in test [1] is 690 nM. The compound also had a pIC50 in test [2] of more than 7.00. In the case of `CC(C)Oc1ccc(Cc2ccccc2)cc1C(=O)CC(=O)C(=O)O`, in test [1], the IC95 worked out at 100 nM. The pIC50 in test [3] was more than 7.00. Turning to `COc1ccc(Cc2ccccc2)cc1C(=O)CC(=O)C(=O)O`, the IC95 in test [1] came to 620 nM. This compound showed a negative logarithm of the IC50 (pIC50) in test [2] of more than 7.00.

With `O=C(O)C(=O)CC(=O)c1ccsc1Cc1ccccc1`, the IC95 in test [1] came to 25000 nM. This compound also had a pIC50 in test [2] of 6.74. As to `O=C(O)C(=O)CC(=O)c1ccn(Cc2ccccc2)c1`, the IC95 in test [1] came out at 3000 nM. Further, the pIC50 in test [2] was 6.30 and 6.22. Take `O=C(O)C(=O)CC(=O)c1cccc(Cc2ccccc2)c1`: in test [1], the IC95 came out at 1110 nM. Also, the pIC50 in test [2] is more than 7.00. As to `O=C(O)C(=O)CC(=O)c1ccc(Cc2ccccc2)s1`, the IC95 in test [1] came out at 12500 nM. In addition, the pIC50 in test [2] is 6.30.

Regarding `CCOc1ccc(Cc2ccccc2)cc1C(=O)CC(=O)C(=O)O`, in test [1], the CIC95 was 0.25 µM and the IC95 came to 150 nM. Further, in test [2], the negative logarithm of the IC50 (pIC50) is more than 7.00. Consider `CC(C)(C)NC(=O)[C@@H]1CN(Cc2cccnc2)CCN1C[C@@H](O)C[C@@H](Cc1ccccc1)C(=O)N[C@H]1c2ccccc2C[C@H]1O` [INDINAVIR], for which, in test [1], the IC95 was determined as 55 nM. Take `O=C(O)C(=O)CC(=O)c1ccccc1Cc1ccccc1`: the IC95 in test [1] is more than 50000 nM. In addition, the pIC50 in test [2] is 5.25. For the compound `O=C(O)C(=O)CC(=O)c1cccc(Cc2cccc(Cl)c2)c1`, the IC95 in test [1] amounted to 940 nM. In test [2], this compound had a pIC50 of more than 7.00. On to `O=C(O)C(=O)CC(=O)c1cccc(Cc2cccc(F)c2)c1`, for which the IC95 in test [1] was determined as 2080 nM. Besides, the pIC50 in test [2] was 6.60. Taken in the same sequence, the figures for `COc1cc(Cc2ccccc2)cc(C(=O)CC(=O)C(=O)O)c1` were 2080 nM and 6.85. Regarding `O=C(O)C(=O)CC(=O)c1cccn1Cc1ccccc1`, the IC95 in test [1] was 41600 nM. The pIC50 in test [2] was 6.66. `O=C(O)C(=O)CC(=O)c1csc(Cc2ccccc2)c1`: the IC95 in test [1] was 2500 nM. Also, in test [2], the pIC50 was 6.80 and 7.00. `O=C(O)C(=O)CC(=O)c1cccc(Cc2ccccc2F)c1`: the IC95 in test [1] came to 520 nM. In test [2], this compound gave a pIC50 of more than 7.00. With `O=C(O)C(=O)CC(=O)c1cccc(Cc2ccccc2Cl)c1`, the IC95 in test [1] was determined as 620 nM. In addition, the pIC50 in test [2] was more than 7.00. With `O=C(O)C(=O)CC(=O)c1cccc(Cc2ccc(Cl)cc2)c1`, the IC95 in test [1] came out at 25000 nM. Moreover, the negative logarithm of the IC50 (pIC50) in test [2] was 6.00 and 6.30.
